# Source: paper PMC5892879, “Structures of the Mycobacterium tuberculosis GlpX protein (class II fructose-1,6-bisphosphatase): implications for the active oligomeric state, catalytic mechanism and citrate inhibition” (Acta Crystallographica. Section D, Structural Biology, 2018)
# “And” between values parts separate entries of the source, which are not always exact repeats. Identical values can stand only once. “Also recorded” adds a separate entry of the source. Like-named read-outs stand apart in the source and are kept apart here.
# What was measured:
# [1] = molecular target: T1, MtFBPaseII (Mycobacterium tuberculosis, UniProt P9WN21); test: FBPase activity of wild-type MtFBPaseII, malachite green assay; type: biochemical; conditions: for Effect on MtFBPaseII activity (in words): TCA cycle intermediates tested for inhibitory activity; for IC50: wild-type MtFBPaseII, malachite green assay, fit of triplicate data, standard error reported
# T1 construct: His-tag (N); made in house
# Procedure: The FBPase activity of wild-type MtFBPaseII was measured using the malachite green assay (Bondoc et al., 2017[▸]) in the presence of α-ketoglutarate, citrate, isocitrate, malate, malonate and oxaloacetate. Compounds were tested in triplicate at concentrations of 5000, 3000, 2500, 1300, 630, 310 and 160 µM with positive (no compound) and negative (no enzyme) controls in parallel. Fitting was performed with GraphPad Prism (v.7.0b; GraphPad Software, La Jolla, California, USA). The coupled assay (Bondoc et al., 2017[▸]) was used to obtain kinetic data, which were fitted to a nonlinear Michaelis–Menten equation.
# [2] = system: EcFBPaseI; parameters: method as in Hines et al., 2007; conditions: in the presence of 5 µM AMP, ref Hines et al., 2007; cited from earlier work
# [3] = read-out: IC50 values of compounds against MtFBPaseII
# [4] = IC50 values of compounds against MtFBPaseII
# T1 sequence (P9WN21 whole entry): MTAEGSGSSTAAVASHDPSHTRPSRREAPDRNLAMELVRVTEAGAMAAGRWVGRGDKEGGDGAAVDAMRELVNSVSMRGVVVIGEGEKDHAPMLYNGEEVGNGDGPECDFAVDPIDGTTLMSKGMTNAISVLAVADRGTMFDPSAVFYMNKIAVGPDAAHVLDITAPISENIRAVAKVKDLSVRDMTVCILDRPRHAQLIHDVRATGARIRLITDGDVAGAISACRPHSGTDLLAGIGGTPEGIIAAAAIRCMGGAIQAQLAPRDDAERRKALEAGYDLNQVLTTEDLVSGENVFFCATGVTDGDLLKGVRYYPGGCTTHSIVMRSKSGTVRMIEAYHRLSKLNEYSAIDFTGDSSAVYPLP
smiles,measurement,setting,value
O=C(O)CC(C(=O)O)C(O)C(=O)O (centres unmarked) [Isocitrate],Effect on MtFBPaseII activity (in words),[1],no effect
same,Inhibition of MtFBPaseII,[1]; up to a concentration of 5 mM,did not inhibit; also recorded: did not have any measureable activity
"O=C(O)CCC(=O)C(=O)O [α-Ketoglutarate, α-ketoglutarate]",IC50,[1]; [3],3.1 ± 0.2 mM
"C=C(OP(=O)(O)O)C(=O)O [PEP, phosphoenolpyruvate]",Concentration range resulting in activation of the enzyme,[2],0.5 to 5 mM
"O=C(O)CC(=O)O [Malonate, malonate]",Concentration with a weak effect on the activity of the enzyme,"[1]; MtFBPaseII, Fig. 4",3 to 4 mM
same,IC50,[1]; [3],3.2 ± 0.1 mM
O=C(O)CC(=O)C(=O)O [Oxaloacetate],IC50,[1]; [4],6.4 ± 0.5 mM
same,Effect on MtFBPaseII activity (in words),[1],limited effect
O=C(O)CC(O)(CC(=O)O)C(=O)O [Citrate],Concentration range resulting in activation of the enzyme,[2],0.5 to 5 mM
same,IC50,[1]; [4],~2 mM and 2 mM
"O=C(O)CC(O)C(=O)O (centres unmarked) [Malate, malate]",IC50,[1]; [4],3.3 ± 0.1 mM
